According to patent US12194004B2, “Nano-delivery carrier for targeted tumor administration and application thereof” (Guizhou Provincial People's Hospital, priority 2023, dated 2025):

Tested on: SKOV3 cells
Assay: Cell viability detection with CCK-8 detection reagent
Assay type: cell-based
Settings: SKOV3 cells treated at different (increasing) concentrations for 24 h
Experimental: In order to verify whether RVT can cause death of the tumor cells, SKOV3 cells are treated with RVT at different concentrations for 24 h, and viability of the SKOV3 cells treated with RVT is detected by using a cell counting kit-8 (CCK-8) detection reagent.
In addition, the SKOV3 cells are treated with PEG-SPIO at different concentrations for 24 h, and the viability of the SKOV3 cells treated with PEG-SPIO is detected by using the CCK-8 detection reagent.
Furthermore, the SKOV3 cells are treated with RVT-encapsulated PEG-SPIO-RVT nanoparticles for 24 h, and the viability of the SKOV3 cells treated with RVT-encapsulated PEG-SPIO-RVT nanoparticles is detected by using the CCK-8 detection reagent. The results are the same as that of treating with RVT alone.

Oc1ccc(/C=C/c2cc(O)cc(O)c2)cc1 [RVT, 3,4′,5-trihydroxy-trans-stilbene]
viability of the SKOV3 cells: gradually shows a downward trend
